Source: patent US12378208B2, “N-substituted oseltamivir derivatives with antimicrobial activity” (THE HONG KONG POLYTECHNIC UNIVERSITY, priority 2019, dated 2025)

How the values were obtained:
NA from A/H3N2 = NA from A/H3N2 (Influenza A virus, UniProt O91745); assay: biochemical; format: biochemical, seasonal A/H3N2
[1] = tested on: influenza B virus (IBV) 12v28393; assay: Plaque assay in MDCK cells; format: cell-based; conditions: for plaque size: MDCK, day 3, vs DMSO vehicle, both concentrations
[2] = tested on: influenza A virus A/OK/447/08 (H1N1); assay: Plaque assay in MDCK cells; format: cell-based; conditions: for plaque count: two concentrations; for plaque size compared with 0.2 nM oseltamivir: both compounds at both concentrations vs 0.2 nM oseltamivir
neuraminidase = neuraminidase (Influenza A virus, UniProt O91745); conditions: previous studies (Ye et al., 2019); read-out: half maximal inhibitory concentration (IC50); cited from earlier work
Chain of neuraminidase (O91745 whole entry): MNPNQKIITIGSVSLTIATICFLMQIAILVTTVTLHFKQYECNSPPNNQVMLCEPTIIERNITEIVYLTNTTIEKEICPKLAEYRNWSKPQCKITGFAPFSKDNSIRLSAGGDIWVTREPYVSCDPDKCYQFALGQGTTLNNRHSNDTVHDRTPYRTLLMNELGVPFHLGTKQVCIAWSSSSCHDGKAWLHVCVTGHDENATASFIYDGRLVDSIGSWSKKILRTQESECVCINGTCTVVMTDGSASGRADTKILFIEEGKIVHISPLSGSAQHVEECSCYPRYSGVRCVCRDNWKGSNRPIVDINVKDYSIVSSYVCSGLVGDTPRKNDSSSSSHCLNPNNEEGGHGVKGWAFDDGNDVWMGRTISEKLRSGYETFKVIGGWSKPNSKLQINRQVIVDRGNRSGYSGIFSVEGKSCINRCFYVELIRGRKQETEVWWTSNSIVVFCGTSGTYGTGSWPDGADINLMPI

IBV 12v33261 = assay: Plaque assay in MDCK cells; format: cell-based, influenza B virus; conditions: for plaque size: MDCK, day 3, vs DMSO vehicle, both concentrations
IBV 12v33280 = assay: Plaque assay in MDCK cells; format: cell-based, influenza B virus; conditions: for plaque size: MDCK, day 3, vs DMSO vehicle, both concentrations
[3] = 3.2 nM S22 vs 0.2 nM oseltamivir (p<0.01)

Chain of NA from A/H3N2 (O91745 whole entry, looked up): as the sequence (O91745 whole entry) above

| Compound | % Inhibition (1 nM) (NA from A/H3N2) | Inhibition rate, 1 μM (NA from A/H3N2) | Inhibition rate, 10 μM (NA from A/H3N2) | other results |
| --- | --- | --- | --- | --- |
| CCC(CC)O[C@@H]1C=C(C(=O)O)C[C@H](NCc2ccc(-c3c(C)noc3C)o2)[C@H]1NC(C)=O [Compound S22, (3R,4R,5S)-4-acetamido-5-(((5-(3,5-dimethylisoxazol-4-yl)furan-2-yl)methyl)amino)-3-(pentan-3-yloxy)cyclohex-1-ene-1-carboxylic acid] | 30.2 ± 1.5% |  |  | IC50 (NA from A/H3N2; Table 2, Example 32): 1.63 ± 0.16 nM; plaque size compared with 0.2 nM oseltamivir [1, 3]: better inhibition effect; plaque size [1]: significantly reduce the plaque size; plaque count ([2]; […]): not plaque count; plaque size compared with 0.2 nM oseltamivir [2]: equally well; IC50 (neuraminidase): 1.6 nM; plaque size compared with 0.2 nM oseltamivir (IBV 12v33261; 3.2 nM S22 vs 0.2 nM oseltamivir (p<0.05)): better inhibition effect; plaque size (IBV 12v33261): significantly reduce the plaque size; plaque size compared with 0.2 nM oseltamivir (IBV 12v33280; 1.6 nM S22 vs 0.2 nM oseltamivir (p<0.05)): extra benefit; inhibition compared with 1.9 nM S7 (IBV 12v33280; 1.6 nM S22 vs 1.9 nM S7 (p<0.05)): better; plaque size compared with 0.2 nM oseltamivir (IBV 12v33280; [3]): better inhibition effect; inhibition compared with 1.9 nM S7 (IBV 12v33280; 3.2 nM S22 vs 1.9 nM S7 (p<0.01)): better; plaque size (IBV 12v33280): significantly reduce the plaque size |
| CCC(CC)O[C@@H]1C=C(C(=O)O)C[C@H](NC(=O)c2cc(C3CC3)n(-c3cccc(C)c3)n2)[C@H]1NC(C)=O [OC-023] |  | 6.24% | 34.75% |  |
| CCC(CC)O[C@@H]1C=C(C(=O)O)C[C@H](NCc2ccc(-c3cc(Cl)ccc3C)o2)[C@H]1NC(C)=O [Compound S21, (3R,4R,5S)-4-acetamido-5-(((5-(5-chloro-2-methylphenyl)furan-2-yl)methyl)amino)-3-(pentan-3-yloxy)cyclohex-1-ene-1-carboxylic acid] | 4.8 ± 1.1% |  |  |  |
| CCC(CC)O[C@@H]1C=C(C(=O)O)C[C@H](NC(=O)c2cc(C3CC3)nn2-c2ccc(Br)cc2)[C@H]1NC(C)=O [OC-025] |  | 2.19% | 37.17% |  |
| CCC(CC)O[C@@H]1C=C(C(=O)O)C[C@H](NC(=O)c2cnn(-c3ccc(OC)cc3)c2)[C@H]1NC(C)=O [OC-022] |  | 6.31% | 34.15% |  |
| CCC(CC)O[C@@H]1C=C(C(=O)O)C[C@H](NCc2noc(-c3cc(OC)c(OC)c(OC)c3)n2)[C@H]1NC(C)=O [Compound S11, (3R,4R,5S)-4-acetamido-3-(pentan-3-yloxy)-5-(((5-(3,4,5-trimethoxyphenyl)-1,2,4-oxadiazol-3-yl)methyl)amino)cyclohex-1-ene-1-carboxylic acid] | 3.5 ± 3.1% |  |  |  |
| CCC(CC)O[C@@H]1C=C(C(=O)O)C[C@H](NC(=O)c2cc(-c3ccc(F)cc3)n[nH]2)[C@H]1NC(C)=O [OC-012] |  | 33.62% | 56.45% | IC50 (NA from A/H3N2; Table 4, Example 34): 11600 nM |
| CCC(CC)O[C@@H]1C=C(C(=O)O)C[C@H](NCc2ccc(-c3cccc(Cl)c3)o2)[C@H]1NC(C)=O [Compound S19] | 5.5 ± 2.4% |  |  |  |
| CCC(CC)O[C@@H]1C=C(C(=O)O)C[C@H](NCc2ccc(-c3ccc(OC)c(OC)c3)o2)[C@H]1NC(C)=O [Compound S18, (3R,4R,5S)-4-Acetamido-5-(((5-(3,4-dimethoxyphenyl)furan-2-yl)methyl)amino)-3-(pentan-3-yloxy)cyclohex-1-ene-1-carboxylic acid] | 12.9 ± 1.2% |  |  |  |
| CCOC(=O)C1=C[C@@H](OC(CC)CC)[C@H](NC(C)=O)[C@@H](N)C1 [oseltamivir] |  |  |  | plaque count ([2]; […]): not plaque count; plaque size ([2]; […], two concentrations (oseltamivir 0.1/0.2 nM, S7 1.9/3.8 nM, S22 1.6/3.2 nM)): reduction in plaque size; IC50 (neuraminidase): 0.1 nM |
| CCC(CC)O[C@@H]1C=C(C(=O)O)C[C@H](NCc2noc(-c3cccc([N+](=O)[O-])c3)n2)[C@H]1NC(C)=O [Compound S6, (3R,4R,5S)-4-acetamido-5-(((5-(3-nitrophenyl)-1,2,4-oxadiazol-3-yl)methyl)amino)-3-(pentan-3-yloxy)cyclohex-1-ene-1-carboxylic acid] | 18.4 ± 3.6% |  |  |  |
| CCC(CC)O[C@@H]1C=C(C(=O)O)C[C@H](NC(=O)c2cnn(Cc3ccccc3Cl)c2)[C@H]1NC(C)=O [OC-005] |  | −1.46% | 18.88% |  |
| CCC(CC)O[C@@H]1C=C(C(=O)O)C[C@H](NC(=O)c2cc(-c3ccc(C(F)(F)F)cc3)n[nH]2)[C@H]1NC(C)=O [OC-009] |  | 3.44% | 46.76% |  |
| CCC(CC)O[C@@H]1C=C(C(=O)O)C[C@H](NC(=O)c2cnn(-c3ccc(Cl)cc3)c2)[C@H]1NC(C)=O [OC-026] |  | −0.26% | 25.67% |  |
| CCC(CC)O[C@@H]1C=C(C(=O)O)C[C@H](NCc2noc(-c3ccccc3C)n2)[C@H]1NC(C)=O [Compound S10, (3R,4R,5S)-4-acetamido-3-(pentan-3-yloxy)-5-(((5-(o-tolyl)-1,2,4-oxadiazol-3-yl)methyl)amino)cyclohex-1-ene-1-carboxylic acid] | 0.5 ± 2.0% |  |  |  |
| CCC(CC)O[C@@H]1C=C(C(=O)O)C[C@H](NCc2noc(-c3c(F)cccc3F)n2)[C@H]1NC(C)=O [Compound S13, (3R,4R,5S)-4-acetamido-5-(((5-(2,6-difluorophenyl)-1,2,4-oxadiazol-3-yl)methyl)amino)-3-(pentan-3-yloxy)cyclohex-1-ene-1-carboxylic acid] | 0.0 ± 2.6% |  |  |  |
| CCC(CC)O[C@@H]1C=C(C(=O)O)C[C@H](NCc2ccc(-c3ccccc3C)o2)[C@H]1NC(C)=O [Compound S16, (3R,4R,5S)-4-Acetamido-3-(pentan-3-yloxy)-5-(((5-(o-tolyl)furan-2-yl)methyl)amino)cyclohex-1-ene-1-carboxylic acid] | 8.4 ± 1.8% |  |  |  |
| CCC(CC)O[C@@H]1C=C(C(=O)O)C[C@H](NC(=O)c2cc(-c3cccs3)n[nH]2)[C@H]1NC(C)=O [OC-014] |  | 21.57% | 40.02% |  |
| CCC(CC)O[C@@H]1C=C(C(=O)O)C[C@H](NCc2ccc(-c3ccc(OC)cc3)o2)[C@H]1NC(C)=O [Compound S14, (3R,4R,5S)-4-Acetamido-5-(((5-(4-methoxyphenyl)furan-2-yl)methyl)amino)-3-(pentan-3-yloxy)cyclohex-1-ene-1-carboxylic acid] | 14.7 ± 4.4% |  |  |  |
| CCC(CC)O[C@@H]1C=C(C(=O)O)C[C@H](NC(=O)c2cc(C3CC3)n(-c3ccc(Br)cc3)n2)[C@H]1NC(C)=O [OC-024] |  | 5.84% | 42.68% |  |
| CCC(CC)O[C@@H]1C=C(C(=O)O)C[C@H](NCc2ccc(-c3ccc(F)cc3)o2)[C@H]1NC(C)=O [Compound S15, (3R,4R,5S)-4-Acetamido-5-(((5-(4-fluorophenyl)furan-2-yl)methyl)amino)-3-(pentan-3-yloxy)cyclohex-1-ene-1-carboxylic acid] | 3.2 ± 3.7% |  |  |  |
| CCC(CC)O[C@@H]1C=C(C(=O)O)C[C@H](NCc2noc(-c3ccco3)n2)[C@H]1NC(C)=O [Compound S7, (3R,4R,5S)-4-acetamido-5-(((5-(furan-2-yl)-1,2,4-oxadiazol-3-yl)methyl)amino)-3-(pentan-3-yloxy)cyclohex-1-ene-1-carboxylic acid] | 28.1 ± 1.7% |  |  | IC50 (NA from A/H3N2; Table 2, Example 32): 1.92 ± 0.24 nM; inhibition compared with 3.2 nM S22 ([1]; 3.8 nM S7 vs 3.2 nM S22 (p<0.05)): extra benefit; plaque size [1]: significantly reduce the plaque size; plaque count ([2]; […]): not plaque count; plaque size compared with 0.2 nM oseltamivir [2]: equally well; IC50 (neuraminidase): 1.9 nM; plaque size (IBV 12v33261): significantly reduce the plaque size; plaque size (IBV 12v33280): significantly reduce the plaque size |
| CCC(CC)O[C@@H]1C=C(C(=O)O)C[C@H](NCc2noc(-c3ccc4ccccc4c3)n2)[C@H]1NC(C)=O [Compound S9, (3R,4R,5S)-4-acetamido-5-(((5-(naphthalen-2-yl)-1,2,4-oxadiazol-3-yl)methyl)amino)-3-(pentan-3-yloxy)cyclohex-1-ene-1-carboxylic acid] | 1.5 ± 1.2% |  |  |  |
| CCC(CC)O[C@@H]1C=C(C(=O)O)C[C@H](NCc2noc(-c3ccccc3)n2)[C@H]1NC(C)=O [Compound S8, (3R,4R,5S)-4-acetamido-3-(pentan-3-yloxy)-5-(((5-phenyl-1,2,4-oxadiazol-3-yl)methyl)amino)cyclohex-1-ene-1-carboxylic acid] | 0.0 ± 2.0% |  |  |  |
